Results published in patent US20160296529A1, “AMINOTRIAZOLOPYRIDINE FOR USE IN THE TREATMENT OF INFLAMMATION, AND PHARMACEUTICAL COMPOSITIONS THEREOF” (priority 2012, published 2016).

What was measured:
hepatocytes of human = assay: In vitro metabolism study in hepatocytes, human; format: in vitro ADME; conditions: human hepatocyte suspension, 24 h incubation of 100 μM [14C]-Formula II
Experimental: (§1) Hepatocyte stability (Concentrations of the compound according to Formula II and its main metabolites (as % of total radioactivity) after 24 h incubation of 100 μM [^14C]-Compound according to Formula II in hepatocyte suspension of different species)

[1] = Single dose pharmacokinetics in animals, mouse; format: in vivo, CD1 mice; conditions: for AUC: read-out: exposure (expressed as AUC)
Experimental: (§2) Pharmacokinetic studies were performed in various animal species dosed with the compound according to Formula II to determine the exposure to the compound according to Formula I as well as its apparent terminal half life (T1/2), when possible.
(§3) Sprague-Dawley rats (male, 200-250 g), CD1 mice (male, 25-30 g), Beagle dogs (male, 9-10 kg), Göttingen minipigs (male, 10-15 kg) and New Zealand White rabbits (male, 3-5 kg) were acclimatized for at least 7 days before treatment and were kept on a 12 hr light/dark cycle (07 h00-19 h00).
(§4) Temperature was maintained at approximately 22° C., and food and water were provided ad libitum.
(§5) The compound according to Formula II was formulated in 0.5% methylcellulose and dosed orally to 3 animals (or 3 mouse/time points) as a single esophageal gavage at dose ranging from 15 to 45 mg/kg under a dosing volume of 5 or 10 mL/kg.
(§6) Blood samples were collected over a 24-h period via the jugular vein (dog, minipig), ear blood vessel (rabbit), cardiac puncture (mouse) or retro-orbital sinus (rat) with lithium heparin as anti-coagulant. Whole blood samples were centrifuged and the resulting plasma samples were stored at −20° C. pending analysis.
(§7) Plasma concentrations of the compound according to Formula I and of the compound according to Formula II were determined by an LC-MS/MS method with a limit of quantification ≦10.0 ng/mL for both Formula I and Formula II for all species.
(§8) Pharmacokinetic parameters were calculated using a statistical analysis package (WinNonLin (Pharsight, Sunnyvale, Calif.: CA 94086, USA).

hepatocytes of mouse = assay: In vitro metabolism study in hepatocytes, mouse; format: in vitro ADME; conditions: mouse hepatocyte suspension, 24 h incubation of 100 μM [14C]-Formula II
Experimental: as §1

hepatocytes of rat = assay: In vitro metabolism study in hepatocytes, rat; format: in vitro ADME; conditions: rat hepatocyte suspension, 24 h incubation of 100 μM [14C]-Formula II
Experimental: as §1

[2] = Repeated dose pharmacokinetics in human; format: in vivo; conditions: for half-life at 10 days: oral, human plasma, repeated dose of Formula II (25-100 mg BID or 200-450 mg QD) for 10 days, read-out: mean apparent terminal elimination half-life; for AUC: plasma, po, read-out: Exposure (expressed as AUC); for AUC / Ratio I/II (AUC Formula I : AUC Formula II): human, steady state
Experimental: Subjects received repeated dose (25, 50 and 100 mg BID or 200, 300 and 450 mg QD) of the compound according to Formula II as capsules after a standard breakfast for 10 days.
Serial blood samples were collected over 12 h (BID regimen) or 24 h (QD regimen) on day 1 and 10 to determine plasma concentrations of the compounds according to Formula II and Formula I using a validated liquid chromatography-mass spectrometry/mass spectrometry (LC-MS/MS) method with a limit of quantification of 1.00 ng/mL for both Formula. PK parameters were assessed using a statistical analysis package (WinNonLin (Pharsight, Sunnyvale, Calif.: CA 94086, USA).
Mean plasma concentration-time profiles of the compound according to Formula II and the compound according to Formula I were measured.
In order to show the comparative exposures of the two compounds, the AUC of the compounds according to Formula I and the compound according to Formula II were calculated. The AUC value represents the steady state exposure of the compounds after repeated dosing. The ratio of AUC of the compound according to Formula I:AUC of the compound according to Formula II is display in Table VII.

[3] = Single dose pharmacokinetics in animals, dog; format: in vivo, Beagle dogs
Experimental: as §2, §3
Temperature was maintained at approximately 22° C., and food and water were provided ad libitum. […]
as §5, §6, §7, §8

[4] = Single dose pharmacokinetics in animals, rat; format: in vivo, Sprague-Dawley rats
Experimental: Pharmacokinetic studies were performed in various animal species dosed with the compound according to Formula II to determine the exposure to the compound according to Formula I as well as its apparent terminal half life (T1/2), when possible. […]
as §4
The compound according to […] was formulated in 0.5% methylcellulose and dosed orally to 3 or 6 animals as a single esophageal gavage at dose ranging from 15 to 180 mg/kg under a dosing volume of 5 or 10 mL/kg.
as §5, §6, §7, §8

[5] = Single dose pharmacokinetics in animals, minipig; format: in vivo, Göttingen minipigs; conditions: after Formula II 30 mg/kg oral; for AUC: male, Göttingen, plasma, read-out: exposure (expressed as AUC)
Experimental: as §2, §3, §4, §5, §6, §7, §8

hepatocytes of dog = assay: In vitro metabolism study in hepatocytes, dog; format: in vitro ADME; conditions: dog hepatocyte suspension, 24 h incubation of 100 μM [14C]-Formula II
Experimental: as §1

[6] = male, CD1, plasma, after Formula II 30 mg/kg oral
[7] = male, Beagle, plasma, after Formula II 15 mg/kg oral, read-out: exposure (expressed as AUC)
[8] = male, Sprague-Dawley, plasma, after Formula II 45 mg/kg oral, read-out: exposure (expressed as AUC)

In the case of O=C(Nc1nc2cccc(-c3ccc(CN4CCS(=O)(=O)CC4)cc3)n2n1)C1CC1 [Formula II, Cyclopropanecarboxylic acid {5-[4-(1,1-dioxo-thiomorpholin-4-ylmethyl)-phenyl]-[1,2,4]triazolo[1,5-a]pyridin-2-yl}-amide], the “In vitro metabolic profile of Formula II (as % of total radioactivity)” value (hepatocytes of human) is reported as “at least 80%”, the “In vitro metabolic profile of Formula II (as % of total radioactivity)” value (hepatocytes of human; listed as drawing 10) is reported as 88% and the AUC [1, 6] is reported as 7300 ng·h/mL. For the same molecule, the “In vitro metabolic profile of Formula II (as % of total radioactivity)” value (hepatocytes of mouse) was “at least 80%”, the “In vitro metabolic profile of Formula II (as % of total radioactivity)” value (hepatocytes of mouse; listed as drawing 10) was 85% and the “In vitro metabolic profile of Formula II (as % of total radioactivity)” value (hepatocytes of rat) was “at least 80%”. For the same molecule, the “In vitro metabolic profile of Formula II (as % of total radioactivity)” value (hepatocytes of rat; listed as drawing 10) was 86%, the half-life at 10 days [2] was 240 to 660 min and the AUC ([2]; Formula II 25 mg BID) was 346 ng·h/mL. For the same molecule, the AUC ([2]; Formula II 50 mg BID) was 758 ng·h/mL, the AUC ([2]; Formula II 100 mg BID) was 2380 ng·h/mL and the AUC ([2]; Formula II 200 mg QD) was 4450 ng·h/mL. It also gave an AUC ([2]; Formula II 300 mg QD) of 4400 ng·h/mL, an AUC ([2]; Formula II 450 mg QD) of 10200 ng·h/mL and an AUC [3, 7] of 44900 ng·h/mL. For the same molecule, the AUC [4, 8] was 33300 ng·h/mL, the AUC [5] was 19100 ng·h/mL and the “In vitro metabolic profile of Formula II (as % of total radioactivity)” value (hepatocytes of dog) was “at least 80%”. For the same molecule, the “In vitro metabolic profile of Formula II (as % of total radioactivity)” value (hepatocytes of dog; listed as drawing 10) was 93%.
With Nc1nc2cccc(-c3ccc(CN4CCS(=O)(=O)CC4)cc3)n2n1 [Formula I, 5-[4-(1,1-Dioxothiomorpholin-4-ylmethyl)-phenyl]-[1,2,4]triazolo[1,5-a]pyridin-2-ylamine] the “In vitro metabolic profile of Formula II (as % of total radioactivity)” value (hepatocytes of human) was 11%, the “In vitro metabolic profile of Formula II (as % of total radioactivity)” value (hepatocytes of human; listed as drawing 11) was 11.2% and the “Ratio I/II of exposure (AUC Formula I : AUC Formula II)” value (“Ratio I/II of exposure” below) ([1]; after Formula II 30 mg/kg oral) was 1.56. The AUC [1, 6] was 11400 ng·h/mL, the half-life ([1]; male, CD1, plasma, oral, upon administration of Formula II, read-out: apparent terminal elimination half-life (converted)) was 126 min and the “In vitro metabolic profile of Formula II (as % of total radioactivity)” value (hepatocytes of mouse) was 14%. The “In vitro metabolic profile of Formula II (as % of total radioactivity)” value (hepatocytes of rat) was 12%, the “Ratio I/II (AUC Formula I : AUC Formula II)” value ([2]; Formula II 25 mg BID) was 24.4 and the “Ratio I/II (AUC Formula I : AUC Formula II)” value ([2]; Formula II 50 mg BID) was 20.5. The “Ratio I/II (AUC Formula I : AUC Formula II)” value ([2]; Formula II 100 mg BID) was 18.3, the “Ratio I/II (AUC Formula I : AUC Formula II)” value ([2]; Formula II 200 mg QD) was 16.1 and the “Ratio I/II (AUC Formula I : AUC Formula II)” value ([2]; Formula II 300 mg QD) was 15.0. The “Ratio I/II (AUC Formula I : AUC Formula II)” value ([2]; Formula II 450 mg QD) was 10.1, the half-life at 10 days [2] was 1320 to 1620 min and the AUC ([2]; Formula II 25 mg BID) was 8660 ng·h/mL. For the same molecule, the AUC ([2]; Formula II 50 mg BID) was 15200 ng·h/mL, the AUC ([2]; Formula II 100 mg BID) was 41100 ng·h/mL and the AUC ([2]; Formula II 200 mg QD) was 70000 ng·h/mL. The AUC ([2]; Formula II 300 mg QD) was 66100 ng·h/mL, the AUC ([2]; Formula II 450 mg QD) was 102000 ng·h/mL and the half-life ([3]; Beagle, plasma, 10 mg/kg, male, administration of Formula I, oral, read-out: Apparent terminal half life (converted)) was 540 min. For the same molecule, the AUC ([3]; Beagle, plasma, male, Formula I 10 mg/kg single oral dose, read-out: AUC) was 49400 ng·h/mL, the AUC ([3]; Beagle, plasma, male, Formula I 25 mg/kg single oral dose, read-out: AUC) was 114000 ng·h/mL and the AUC ([3]; Beagle, plasma, male, Formula I 50 mg/kg single oral dose, read-out: AUC) was 290000 ng·h/mL. The “Ratio I/II of exposure” value ([3]; after Formula II 15 mg/kg oral) was 0.24, the AUC [3, 7] was 10600 ng·h/mL and the half-life ([4]; Sprague-Dawley, plasma, 20 mg/kg, administration of Formula I, oral, read-out: Apparent terminal half life (converted)) was 420 min. For the same molecule, the AUC ([4]; Sprague-Dawley, plasma, female, Formula I 20 mg/kg single oral dose, read-out: AUC) was 25200 ng·h/mL, the AUC ([4]; Sprague-Dawley, plasma, female, Formula I 60 mg/kg single oral dose, read-out: AUC) was 123000 ng·h/mL and the AUC ([4]; Sprague-Dawley, plasma, female, Formula I 180 mg/kg single oral dose, read-out: AUC) was 541000 ng·h/mL. The AUC ([4]; Sprague-Dawley, plasma, male, Formula I 20 mg/kg single oral dose, read-out: AUC) was 19700 ng·h/mL, the AUC ([4]; Sprague-Dawley, plasma, male, Formula I 60 mg/kg single oral dose, read-out: AUC) was 102000 ng·h/mL and the AUC ([4]; Sprague-Dawley, plasma, male, Formula I 180 mg/kg single oral dose, read-out: AUC) was 376000 ng·h/mL. For the same molecule, the “Ratio I/II of exposure” value ([4]; after Formula II 45 mg/kg oral) was 0.40, the AUC [4, 8] was 13300 ng·h/mL and the “Ratio I/II of exposure” value [5] was 0.88. For the same molecule, the AUC [5] was 16700 ng·h/mL and the “In vitro metabolic profile of Formula II (as % of total radioactivity)” value (hepatocytes of dog) was 5.7%.
